According to US12662490B2, “Heterocyclic compounds” (Hoffmann-La Roche Inc., priority 2019, dated 2026):

Molecular target: T1, MAGL (Homo sapiens, UniProt Q99685)
T1 sequence (Q99685 1-303): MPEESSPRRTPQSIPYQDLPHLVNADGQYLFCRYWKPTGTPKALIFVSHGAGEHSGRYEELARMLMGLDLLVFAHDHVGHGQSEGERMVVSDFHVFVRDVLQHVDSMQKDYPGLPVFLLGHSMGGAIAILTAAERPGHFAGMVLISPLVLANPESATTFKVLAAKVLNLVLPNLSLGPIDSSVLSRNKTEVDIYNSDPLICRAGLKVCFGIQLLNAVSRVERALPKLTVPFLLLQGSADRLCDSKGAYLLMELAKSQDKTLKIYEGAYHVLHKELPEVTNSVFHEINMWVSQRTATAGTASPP
Test: 2-AG assay (MAGL inhibitory activity; hydrolysis of 2-arachidonoylglycerol to arachidonic acid followed by mass spectrometry)
Type: biochemical
Conditions: 15 min preincubation at RT, 8 μM 2-arachidonoylglycerol, 30 min at RT, RapidFire MS readout
Procedure: Compounds were profiled for MAGL inhibitory activity by determining the enzymatic activity by following the hydrolysis of the natural substrate 2-arachidonoylglycerol (2-AG) resulting in arachidonic acid, which can be followed by mass spectrometry. This assay is hereinafter abbreviated “2-AG assay”.
The 2-AG assay was carried out in 384 well assay plates (PP, Greiner Cat #784201) in a total volume of 20 μL. Compound dilutions were made in […] (VWR Chemicals 23500.297) in a polypropylene plate in 3-fold dilution steps to give a final concentration range in the assay from 12.5 μM to […]. 0.25 μL compound dilutions (100% DMSO) were added to 9 μL MAGL in assay buffer (50 mM TRIS (GIBCO, 15567-027), 1 mM EDTA (Fluka, 03690-100 mL), 0.010 (v/v) Tween. After shaking, the plate was incubated for 15 min at RT. To start the reaction, 10 μL 2-arachidonoylglycerol in assay buffer was added. The final concentrations in the assay was […] and 8 μM 2-arachidonoylglyerol. After shaking and 30 min incubation at RT, the reaction was quenched by the addition of 40 μL of ACN containing 4 μM of d8-arachidonic acid. The amount of arachidonic acid was traced by an online SPE system (Agilent Rapidfire) coupled to a triple quadrupole mass spectrometer (Agilent 6460). A C18 SPE cartridge (G9205A) was used in an ACN/water liquid setup. The mass spectrometer was operated in negative electrospray mode following the mass transitions 303.1→259.1 for arachidonic acid and 311.1→267.0 for d8-arachidonic acid. The activity of the compounds was calculated based on the ratio of intensities [arachidonic acid/d8-arachidonic acid].

SMILES	IC50
COc1cccc(C(=O)N2CCN3C[C@@H](c4ccc(F)c(C5CC5)c4)OC[C@@H]3C2)c1Cl [Example 24, [(3R,9aS)-3-(3-cyclopropyl-4-fluoro-phenyl)-3,4,6,7,9,9a-hexahydro-1H-pyrazino[2,1-c][1,4]oxazin-8-yl]-(2-chloro-3-methoxy-phenyl)methanone]	94.8 nM
O=C(c1cccc(OC(F)F)c1Cl)N1CCN2C[C@@H](c3ccc(F)c(Cl)c3)OC[C@@H]2C1 [Example 25, [(3R,9aS)-3-(3-chloro-4-fluoro-phenyl)-3,4,6,7,9,9a-hexahydro-1H-pyrazino[2,1-c][1,4]oxazin-8-yl]-[2-chloro-3-(difluoromethoxy)phenyl]methanone]	131 nM
Cc1[nH]ncc1-c1cccc(C(=O)N2CCN3C[C@@H](c4ccc(F)c(Cl)c4)OC[C@@H]3C2)c1Cl [Example 26, [(3R,9aS)-3-(3-chloro-4-fluoro-phenyl)-3,4,6,7,9,9a-hexahydro-1H-pyrazino[2,1-c][1,4]oxazin-8-yl]-[2-chloro-3-(5-methyl-1H-pyrazol-4-yl)phenyl]methanone]	10.6 nM
Cc1ccncc1-c1cccc(C(=O)N2CCN3C[C@@H](c4ccc(F)c(Cl)c4)OC[C@@H]3C2)c1Cl [Example 27, [(3R,9aS)-3-(3-chloro-4-fluoro-phenyl)-3,4,6,7,9,9a-hexahydro-1H-pyrazino[2,1-c][1,4]oxazin-8-yl]-[2-chloro-3-(4-methyl-3-pyridyl)phenyl]methanone]	210 nM
Cc1cnccc1-c1cccc(C(=O)N2CCN3C[C@@H](c4ccc(F)c(Cl)c4)OC[C@@H]3C2)c1Cl [Example 28, [(3R,9aS)-3-(3-chloro-4-fluoro-phenyl)-3,4,6,7,9,9a-hexahydro-1H-pyrazino[2,1-c][1,4]oxazin-8-yl]-[2-chloro-3-(3-methyl-4-pyridyl)phenyl]methanone]	32.6 nM
O=C(c1cccc(-c2ccnnc2)c1Cl)N1CCN2C[C@@H](c3ccc(F)c(Cl)c3)OC[C@@H]2C1 [Example 29, [(3R,9aS)-3-(3-chloro-4-fluoro-phenyl)-3,4,6,7,9,9a-hexahydro-1H-pyrazino[2,1-c][1,4]oxazin-8-yl]-(2-chloro-3-pyridazin-4-yl-phenyl)methanone]	202 nM
O=C(c1cccc(-c2ccccn2)c1Cl)N1CCN2C[C@@H](c3ccc(F)c(Cl)c3)OC[C@@H]2C1 [Example 30, [(3R,9aS)-3-(3-chloro-4-fluoro-phenyl)-3,4,6,7,9,9a-hexahydro-1H-pyrazino[2,1-c][1,4]oxazin-8-yl]-[2-chloro-3-(2-pyridyl)phenyl]methanone]	49.2 nM
O=C(c1cccc(-c2cccnn2)c1Cl)N1CCN2C[C@@H](c3ccc(F)c(Cl)c3)OC[C@@H]2C1 [Example 31, [(3R,9aS)-3-(3-chloro-4-fluoro-phenyl)-3,4,6,7,9,9a-hexahydro-1H-pyrazino[2,1-c][1,4]oxazin-8-yl]-(2-chloro-3-pyridazin-3-yl-phenyl)methanone]	173 nM
Cc1ccnnc1-c1cccc(C(=O)N2CCN3C[C@@H](c4ccc(F)c(Cl)c4)OC[C@@H]3C2)c1Cl [Example 34, [(3R,9aS)-3-(3-chloro-4-fluoro-phenyl)-3,4,6,7,9,9a-hexahydro-1H-pyrazino[2,1-c][1,4]oxazin-8-yl]-[2-chloro-3-(4-methylpyridazin-3-yl)phenyl]methanone]	1440 nM
Cc1cncnc1-c1cccc(C(=O)N2CCN3C[C@@H](c4ccc(F)c(Cl)c4)OC[C@@H]3C2)c1Cl [Example 35, [(3R,9aS)-3-(3-chloro-4-fluoro-phenyl)-3,4,6,7,9,9a-hexahydro-1H-pyrazino[2,1-c][1,4]oxazin-8-yl]-[2-chloro-3-(5-methylpyrimidin-4-yl)phenyl]methanone]	1080 nM
O=C(c1cccc(-c2cnc[nH]2)c1Cl)N1CCN2C[C@@H](c3ccc(F)c(Cl)c3)OC[C@@H]2C1 [Example 36, [(3R,9aS)-3-(3-chloro-4-fluoro-phenyl)-3,4,6,7,9,9a-hexahydro-1H-pyrazino[2,1-c][1,4]oxazin-8-yl]-[2-chloro-3-(1H-imidazol-5-yl)phenyl]methanone]	7.4 nM
Cc1cccnc1-c1cccc(C(=O)N2CCN3C[C@@H](c4ccc(F)c(Cl)c4)OC[C@@H]3C2)c1Cl [Example 37, [(3R,9aS)-3-(3-chloro-4-fluoro-phenyl)-3,4,6,7,9,9a-hexahydro-1H-pyrazino[2,1-c][1,4]oxazin-8-yl]-[2-chloro-3-(3-methyl-2-pyridyl)phenyl]methanone]	277 nM
O=C(c1cccc(-c2cn[nH]c2)c1Cl)N1CCN2C[C@@H](c3ccc(F)c(Cl)c3)OC[C@@H]2C1 [Example 38, [(3R,9aS)-3-(3-chloro-4-fluoro-phenyl)-3,4,6,7,9,9a-hexahydro-1H-pyrazino[2,1-c][1,4]oxazin-8-yl]-[2-chloro-3-(1H-pyrazol-4-yl)phenyl]methanone]	1.9 nM
Cc1c(-c2cccc(C(=O)N3CCN4C[C@@H](c5ccc(F)c(Cl)c5)OC[C@@H]4C3)c2Cl)cnn1C [Example 39, [(3R,9aS)-3-(3-chloro-4-fluoro-phenyl)-3,4,6,7,9,9a-hexahydro-1H-pyrazino[2,1-c][1,4]oxazin-8-yl]-[2-chloro-3-(1,5-dimethylpyrazol-4-yl)phenyl]methanone]	49.7 nM
Cc1nocc1-c1cccc(C(=O)N2CCN3C[C@@H](c4ccc(F)c(Cl)c4)OC[C@@H]3C2)c1Cl [Example 40, [(3R,9aS)-3-(3-chloro-4-fluoro-phenyl)-3,4,6,7,9,9a-hexahydro-1H-pyrazino[2,1-c][1,4]oxazin-8-yl]-[2-chloro-3-(3-methylisoxazol-4-yl)phenyl]methanone]	160 nM
Cc1n[nH]c2ccc(C(=O)N3CCN4C[C@@H](c5ccc(F)c(Cl)c5)OC[C@@H]4C3)c(Cl)c12 [Example 41, [(3R,9aS)-3-(3-chloro-4-fluoro-phenyl)-3,4,6,7,9,9a-hexahydro-1H-pyrazino[2,1-c][1,4]oxazin-8-yl]-(4-chloro-3-methyl-1H-indazol-5-yl)methanone]	63.8 nM
O=C(c1cccc(N2CC3(COC3)C2)c1Cl)N1CCN2C[C@@H](c3ccc(F)c(Cl)c3)OC[C@@H]2C1 [Example 42, [(3R,9aS)-3-(3-chloro-4-fluoro-phenyl)-3,4,6,7,9,9a-hexahydro-1H-pyrazino[2,1-c][1,4]oxazin-8-yl]-[2-chloro-3-(2-oxa-6-azaspiro[3.3]heptan-6-yl)phenyl]methanone]	48.6 nM
O=C(c1cccc(N2CCOCC2)c1Cl)N1CCN2C[C@@H](c3ccc(F)c(Cl)c3)OC[C@@H]2C1 [Example 43, [(3R,9aS)-3-(3-chloro-4-fluoro-phenyl)-3,4,6,7,9,9a-hexahydro-1H-pyrazino[2,1-c][1,4]oxazin-8-yl]-(2-chloro-3-morpholino-phenyl)methanone]	120 nM
O=C(c1cccc(-c2cnn[nH]2)c1Cl)N1CCN2C[C@@H](c3ccc(F)c(Cl)c3)OC[C@@H]2C1 [Example 44, [(3R,9aS)-3-(3-chloro-4-fluoro-phenyl)-3,4,6,7,9,9a-hexahydro-1H-pyrazino[2,1-c][1,4]oxazin-8-yl]-[2-chloro-3-(1H-triazol-5-yl)phenyl]methanone]	50 nM
COc1cccc(C(=O)N2CCN3C[C@@](O)(c4ccc(F)c(Cl)c4)OC[C@@H]3C2)c1Cl [Example 45, [(3R,9aS)-3-(3-chloro-4-fluoro-phenyl)-3-hydroxy-1,4,6,7,9,9a-hexahydropyrazino[2,1-c][1,4]oxazin-8-yl]-(2-chloro-3-methoxy-phenyl)methanone]	19.4 nM
COc1cccc(C(=O)N2CCN3C[C@](O)(c4ccc(F)c(Cl)c4)OC[C@H]3C2)c1Cl [Example 46, [(3S,9aR)-3-(3-chloro-4-fluoro-phenyl)-3-hydroxy-1,4,6,7,9,9a-hexahydropyrazino[2,1-c][1,4]oxazin-8-yl]-(2-chloro-3-methoxy-phenyl)methanone]	178 nM
O=C(c1cccc(-c2c[nH]nc2F)c1Cl)N1CCN2C[C@@H](c3ccc(F)c(Cl)c3)OC[C@@H]2C1 [Example 49, [(3R,9aS)-3-(3-chloro-4-fluoro-phenyl)-3,4,6,7,9,9a-hexahydro-1H-pyrazino[2,1-c][1,4]oxazin-8-yl]-[2-chloro-3-(3-fluoro-1H-pyrazol-4-yl)phenyl]methanone]	1 nM
O=C(c1cccc(-c2c[nH]nc2F)c1Cl)N1CCN2C[C@H](c3ccc(F)c(Cl)c3)OC[C@@H]2C1 [Example 50, [(3S,9aS)-3-(3-chloro-4-fluoro-phenyl)-3,4,6,7,9,9a-hexahydro-1H-pyrazino[2,1-c][1,4]oxazin-8-yl]-[2-chloro-3-(3-fluoro-1H-pyrazol-4-yl)phenyl]methanone]	418 nM
